The results in this text go back to US5916914A, “Compounds and method of treating psychosis and schizophrenia” (priority 1997, dated 1999).

The target in assay [1] is T1, human recombinant dopamine D4.2 receptor (Homo sapiens, UniProt P21917, DEL265-296).
T1 construct: expressed in transfected cells
T1 sequence (P21917 with tags, fused parts or gaps DEL265-296): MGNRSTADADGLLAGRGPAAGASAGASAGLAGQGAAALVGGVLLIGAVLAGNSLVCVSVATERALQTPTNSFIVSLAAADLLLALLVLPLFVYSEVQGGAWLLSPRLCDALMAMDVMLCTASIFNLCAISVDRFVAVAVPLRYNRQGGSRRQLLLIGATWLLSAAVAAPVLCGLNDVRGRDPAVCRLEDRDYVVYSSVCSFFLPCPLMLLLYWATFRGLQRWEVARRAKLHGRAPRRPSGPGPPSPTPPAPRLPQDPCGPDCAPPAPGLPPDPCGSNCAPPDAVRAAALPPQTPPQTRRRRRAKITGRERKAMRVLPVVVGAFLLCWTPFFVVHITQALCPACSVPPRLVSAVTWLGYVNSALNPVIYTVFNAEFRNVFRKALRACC
Nature of the assay: Receptor binding assay, D4.2 ([^3 H]spiperone). An excerpt:
(§1) A cell line expressing human dopamine D2 (Long form) receptors was purchased from Oregon Health Sciences University, Portland, Oreg. The D2 receptor cDNA was subcloned into an expression vector, pRc/CMV. The plasmids were transfected by electroporation into CHO K1 cells. A single stable transfectant, resistant to the antibiotic G418, was isolated and selected for use in the binding studies. For D4 binding, CHO K1 cells stably transfected to express the human recombinant dopamine D4.2 receptor subtype, as described by Shih, et al., "The expression and functional characterization of human dopamine D4.2 receptor in CHO K1 cells," Soc. Neurosci., 1995;21 (Part 1):621 were used.
(§2) CHO K1 cells expressing either human D2 and D4.2 receptors were grown in 162 cm^2 culture flasks in F12 medium (Gibco Laboratories, Grand Island, N.Y.) supplemented with 10% fetal bovine serum (FBS, Hyclone, Logan, Utah) in an atmosphere of 5% CO2 /95% air at 37 EC. Cells were grown until confluent, after which growth medium was removed and replaced with 0.02% ethylene diamine tetracetate (EDTA) in a phosphate-buffered saline solution (Sigma Chemical Co., St. Louis, Mo.) and scraped from the flasks. The cells were centrifuged at about 1000×g for 10 minutes at 4° C. and then resuspended in TEM buffer (25 mM Tris-HCL, pH 7.4, 5 mM EDTA, and 6 mM MgCl2) for D2 or the D4.2 buffer (50 mM Tris-HCl, pH 7.4, 5 mM EDTA, 1.5 mM CaCl2, 5 mM KCl, and 120 mM NaCl) and homogenized. The membranes were pelleted by centrifugation at 20000×g at 4° C. for 20 minutes. Then the pellets were resuspended in appropriate buffer at 1 mL/flask and stored at -70° C. until used in the receptor binding assay.
(§3) After 60 minutes incubation at 25° C., the incubations were terminated by rapid filtration through Whatmann GF/B glass fibre filters (soaked for 1 hour in 0.5% polyethylenimine) on a cell harvester, with three washes of 1 mL ice-cold buffer. Individual filter disks containing the bound ligand were placed in counting vials with 4 mL of scintillation fluid (Ready Gel, Beckman Instrument, Inc., Fullerton, Calif.) and then counted in a Beckman LS-6800 liquid scintillation counter at an efficiency of 45%. Nonspecific binding was defined in presence of 1 mM of haloperidol.
(§4) Saturation and competition binding data were analyzed using an iterative nonlinear least square curve-fitting Ligand program. […] Experimental compounds were made up as stock solutions in dimethyl sulfoxide (DMSO). […] Each observation was carried out in triplicate. To allow these calculations, Kd values were measured for the interaction of various ligands with the receptor. […]

Assay [2] deals with human dopamine D2 (Long form) receptors (Homo sapiens, UniProt P14416). Nature of the assay: biochemical. The class given is binding.
human dopamine D2 (Long form) receptors, sequence (P14416 whole entry): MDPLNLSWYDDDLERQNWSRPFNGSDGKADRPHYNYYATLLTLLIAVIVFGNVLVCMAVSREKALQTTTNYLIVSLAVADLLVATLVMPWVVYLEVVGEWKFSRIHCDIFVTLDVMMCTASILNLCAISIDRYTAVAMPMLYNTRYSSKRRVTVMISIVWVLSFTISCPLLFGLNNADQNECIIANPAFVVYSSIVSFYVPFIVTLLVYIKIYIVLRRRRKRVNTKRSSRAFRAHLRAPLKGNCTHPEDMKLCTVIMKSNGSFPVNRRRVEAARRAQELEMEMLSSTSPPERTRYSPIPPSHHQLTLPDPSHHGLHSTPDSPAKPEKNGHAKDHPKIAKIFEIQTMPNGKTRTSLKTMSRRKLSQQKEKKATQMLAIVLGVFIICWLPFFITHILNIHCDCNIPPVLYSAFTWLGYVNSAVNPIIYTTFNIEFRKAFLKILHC
Excerpt: as §1, §2, §3, §4

Counter-ions that a name gives are not always drawn.

As to `O=c1ccc2cc(CNCCOc3ccc(Cl)cc3)ccc2o1` [Example 4l, 6-{[2-(4-Chloro-phenoxy)-ethylamino]-methyl}-chromen-2-one], the Ki – broadly, the equilibrium dissociation constant of an inhibitor or competing ligand from its target – worked out at 13.5 nM in assay [1] and 4870 nM in assay [2]. For the compound `O=c1ccc2ccc(CNCCNc3ccc(CO)c(Cl)c3)cc2o1` [Example 4a, 7-{[2-(3-Chloro-4-hydroxymethyl-phenylamino)-ethylamino]-methyl}-chromen-2-one], the Ki in assay [1] worked out at 95 nM. Regarding `O=c1ccc2ccc(CNCCNc3cccc(Cl)c3)cc2o1` [Example 4d, 7-{[2-(3-Chloro-phenylamino)-ethylamino]-methyl}-chromen-2-one dihydrochloride], the Ki in assay [1] was found to be 42 nM. As to `Cc1ccc(OCCNCc2ccc3ccc(=O)oc3c2)cc1` [Example 4n, 7-[(2-p-Tolyloxy-ethylamino)-methyl]-chromen-2-one], the Ki in assay [1] was determined as 3.9 nM; in assay [2], 195 nM. For `Cc1cc(=O)oc2cc(OCCNCCCOc3ccccc3)ccc12` [Example 3, 4-Methyl-7-[2-(3-phenoxy-propylamino)-ethoxy]-chromen-2-one Hydrochloride], in that order: 1.9 nM and 231 nM. For `c1ccc(OCCCNCCOc2ccc3occc3c2)cc1` [Example 3b, [2-(Benzofuran-5-yloxy)-ethyl]-(3-phenoxy-propyl)-amine hydrochloride], in that order: 1.2 nM and 502 nM. Turning to `O=c1ccc2ccc(CNCCCNc3ccccc3)cc2o1` [Example 4i, 7-[(3-Phenylamino-propylamino)-methyl]-chromen-2-one], the Ki in assay [1] was 31 nM. As to `Cc1ccc(OCCCNCc2ccc3ccc(=O)oc3c2)cc1` [Example 4s, 7-[(3-p-Tolyloxy-propylamino)-methyl]-chromen-2-one], in assay [1], the Ki stood at 234 nM. As for `O=c1ccc2cc(CNCCCOc3ccccc3)ccc2o1` [Example 4t, 6-[(3-Phenoxy-propylamino)-methyl]-chromen-2-one], the Ki in assay [1] turned out to be 20 nM; in assay [2], 1070 nM. For `c1ccc(OCCCNCCOc2ccc3oc4ccccc4c3c2)cc1` [Example 2d, [2-(Dibenzofuran-2-yloxy)-ethyl]-(3-phenoxypropyl)-amine hydrochloride], the Ki in assay [1] is 78.7 nM. Still for that read-out and setting: the same measure for `O=c1ccc2ccc(CNCCOc3ccccc3)cc2o1` [Example 4m, 7-[(2-Phenoxy-ethylamino)-methyl]-chromen-2-one]: 43 nM; for `Cc1cc(=O)oc2ccc(OCCNCCCOc3ccccc3)cc12` [Example 3a, 4-Methyl-6-[2-(3-phenoxy-propylamino)-ethoxy]-chromen-2-one hydrochloride]: 70.2 nM.

With `O=c1ccc2ccc(CNCCOc3ccc(Cl)cc3)cc2o1` [Example 4o, 7-{[2-(4-Chloro-phenoxy)-ethylamino]-methyl}-chromen-2-one], the Ki in assay [1] is 9.5 nM; in assay [2], 286 nM.

With `O=c1ccc2ccc(CNCCCOc3ccc(Cl)cc3)cc2o1` [Example 4r, 7-{[3-(4-Chloro-phenoxy)-propylamino]-methyl}-chromen-2-one], the Ki in assay [1] amounted to 92 nM. Turning to `Cc1ccc(OCCNCc2ccc3oc(=O)ccc3c2)cc1` [Example 4k, 6-[(2-p-Tolyloxy-ethylamino)-methyl]-chromen-2-one], the Ki came out at 23.8 nM in assay [1] and 5880 nM in assay [2]. As for `O=c1ccc2cc(CNCCOc3ccccc3)ccc2o1` [Example 4j, 6-[(2-Phenoxy-ethylamino)-methyl]-chromen-2-one hydrochloride], in assay [1], the Ki worked out at 64 nM. In the case of `O=c1ccc2ccc(CNCCCc3ccccc3)cc2o1` [Example 4q, 7-[(3-Phenyl-propylamino)-methyl]-chromen-2-one], in assay [1], the Ki was found to be 60 nM. As for `O=c1ccc2ccc(OCCNCCCOc3ccccc3)cc2o1` [Example 2c, 7-[2-(3-Phenoxy-propylamino)-ethoxy]-chromen-2-one hydrochloride], the figures for the Ki in assay [1] and in assay [2] were 1.6 nM and 249 nM, respectively. Consider `c1ccc(OCCCNCCOc2ccc3ncccc3c2)cc1` [Example 2a, (3-Phenoxy-propyl)-[2-quinolin-6-yloxy)-ethyl]-amine hydrochloride], for which the Ki in assay [1] came to 12.8 nM; in assay [2], 578 nM. With `O=c1ccc2cc(CNCCNc3ccccc3)ccc2o1` [Example 4g, 6-[(2-Phenylamino-ethylamino)-methyl]-chromen-2-one], in assay [1], the Ki was 311 nM.

Consider `O=c1ccc2ccc(CNCCSc3ccccc3)cc2o1` [Example 4p, 7-[(2-Phenylsulfanyl-ethylamino)-methyl]-chromen-2-one hydrochloride], for which, in assay [1], the Ki was 394 nM.
